Data reported in patent publication US20250147039A1, “Compounds for complexation of rare earth elements and/or s-, p-, d- block metals, their coordination compounds, peptide conjugates, method of their preparation and use thereof” (USTAV ORGANICKE CHEMIE A BIOCHEMIE AV CR V.V.I., priority 2021, published 2025).
Blank lines part the entries; values can stand above or below the molecule they belong to.

Tests used:
[1] = Alkali metal dependent formation of 1,5-cz-Lig and 1,4-cz-Lig isomers from Lig at pH 10.2 (Chart 14); format: physicochemical; conditions: B: 1 day at 80° C., Borate/(M^I)2CO3 buffer pH 10.2
[2] = Dissociation of chelates in aq. 6.0M HCl at 80° C. (acid decomplexation kinetic inertness) (Chart 17); format: physicochemical
[3] = Formation of 1,5-cz-[M(Lig)] from Lig and M^III ions (metal dependent click-zip) (Charts 4, 5); format: physicochemical; conditions: MOPS/NaOH buffer pH 7.0, TD728, TD827 in 50% i-PrOH; for conversion to 1,5-cz-[M(Lig)], Y^III: TD714 sum of two diastereoisomers
[4] = Formation of 1,5-cz-[Ln(Lig)] from Lig and Ln^III ions (metal dependent click-zip), MOPS/NaOH buffer pH 7.0, analytical HPLC (Charts 1, 2); conditions: MOPS/NaOH buffer pH 7.0
[5] = visible analyte free precipitate

- conversion to 1,4-cz-Lig isomer, Cs^I [1]: 20%
- conversion to 1,4-cz-Lig isomer, K^I [1]: 20%
- conversion to 1,4-cz-Lig isomer, Na^I [1]: 10%
- conversion to 1,4-cz-Lig isomer, Rb^I [1]: 20%
- conversion to 1,5-cz-Lig isomer, Cs^I [1]: 13%
- conversion to 1,5-cz-Lig isomer, K^I [1]: 14%
- conversion to 1,5-cz-Lig isomer, Na^I [1]: 75%
- conversion to 1,5-cz-Lig isomer, Rb^I [1]: 14%
- conversion to 1,4-cz-Lig isomer, Li^I [1, 5]: 14%
- conversion to 1,5-cz-Lig isomer, Li^I [1, 5]: 24%
SMILES: C#Cc1cccc(CN2CCNCCN(Cc3cccc(CN=[N+]=[N-])n3)CCN(CC(=O)O)CC2)n1 [TD703]

- fraction of intact chelate ([2]; 1 month): 95%
- fraction of intact chelate ([2]; 1 week): 98%
- fraction of intact chelate ([2]; 1 hour): 100%
- fraction of intact chelate ([2]; 1 day): 100%
SMILES: O=C1CN2CCN3CCN(CCN(CC2)Cc2cccc(n2)-c2cnnn2Cc2cccc(n2)C3)CP(=O)(O)[O][Lu][O]1 [TD734]

- fraction of intact chelate ([2]; 1 month): 98%
- fraction of intact chelate ([2]; 1 week): 99%
- fraction of intact chelate ([2]; 1 hour): 100%
- fraction of intact chelate ([2]; 1 day): 100%
SMILES: NCc1nnn2c1-c1cccc(n1)C[N@]1CC[N@]3CC[N@@](CC[N@@](CC1)CC(=O)[O][Lu][O]C(=O)C3)Cc1cc(-c3ccccc3)cc(n1)C2 [TD735]

- fraction of intact chelate ([2]; 1 month): 97%
- fraction of intact chelate ([2]; 1 week): 100%
- fraction of intact chelate ([2]; 1 hour): 100%
- fraction of intact chelate ([2]; 1 day): 100%
SMILES: O=C1C[N@@]2CC[N@]3CC[N@@](CC[N@](CC2)Cc2cccc(n2)-c2cnnn2Cc2cc(-c4ccc(C(=O)O)cc4)cc(n2)C3)CC(=O)[O][Lu][O]1 [TD748]

- conversion to 1,5-cz-[M(Lig)], Sc^III ([3]; 1 week at 80° C.): 16%
- conversion to 1,5-cz-[M(Lig)], Y^III ([3]; 1 week at 80° C.): 22%
- conversion to 1,5-cz-[M(Lig)], Sc^III ([3]; 1 hour at 80° C.): 0%
- conversion to 1,5-cz-[M(Lig)], Y^III ([3]; 1 hour at 80° C.): 3%
- conversion to 1,5-cz-[Ln(Lig)], Ce^III ([4]; after 1 week at 80° C.): 0%
- conversion to 1,5-cz-[Ln(Lig)], Ce^III ([4]; after 1 hour at 80° C.): 0%
- conversion to 1,5-cz-[Ln(Lig)], Dy^III ([4]; after 1 week at 80° C.): 17%
- conversion to 1,5-cz-[Ln(Lig)], Dy^III ([4]; after 1 hour at 80° C.): 2%
- conversion to 1,5-cz-[Ln(Lig)], Er^III ([4]; after 1 week at 80° C.): 39%
- conversion to 1,5-cz-[Ln(Lig)], Er^III ([4]; after 1 hour at 80° C.): 6%
- conversion to 1,5-cz-[Ln(Lig)], Eu^III ([4]; after 1 week at 80° C.): 5%
- conversion to 1,5-cz-[Ln(Lig)], Eu^III ([4]; after 1 hour at 80° C.): 1%
- conversion to 1,5-cz-[Ln(Lig)], Gd^III ([4]; after 1 week at 80° C.): 5%
- conversion to 1,5-cz-[Ln(Lig)], Gd^III ([4]; after 1 hour at 80° C.): 1%
- conversion to 1,5-cz-[Ln(Lig)], Ho^III ([4]; after 1 week at 80° C.): 23%
- conversion to 1,5-cz-[Ln(Lig)], Ho^III ([4]; after 1 hour at 80° C.): 4%
- conversion to 1,5-cz-[Ln(Lig)], La^III ([4]; after 1 week at 80° C.): 0%
- conversion to 1,5-cz-[Ln(Lig)], La^III ([4]; after 1 hour at 80° C.): 0%
- conversion to 1,5-cz-[Ln(Lig)], Lu^III ([4]; after 1 week at 80° C.): 83%
- conversion to 1,5-cz-[Ln(Lig)], Lu^III ([4]; after 1 hour at 80° C.): 18%
- conversion to 1,5-cz-[Ln(Lig)], Nd^III ([4]; after 1 week at 80° C.): 1%
- conversion to 1,5-cz-[Ln(Lig)], Nd^III ([4]; after 1 hour at 80° C.): 0%
- conversion to 1,5-cz-[Ln(Lig)], Pr^III ([4]; after 1 week at 80° C.): 0%
- conversion to 1,5-cz-[Ln(Lig)], Pr^III ([4]; after 1 hour at 80° C.): 0%
- conversion to 1,5-cz-[Ln(Lig)], Sm^III ([4]; after 1 week at 80° C.): 4%
- conversion to 1,5-cz-[Ln(Lig)], Sm^III ([4]; after 1 hour at 80° C.): 1%
- conversion to 1,5-cz-[Ln(Lig)], Tb^III ([4]; after 1 week at 80° C.): 10%
- conversion to 1,5-cz-[Ln(Lig)], Tb^III ([4]; after 1 hour at 80° C.): 2%
- conversion to 1,5-cz-[Ln(Lig)], Tm^III ([4]; after 1 week at 80° C.): 62%
- conversion to 1,5-cz-[Ln(Lig)], Tm^III ([4]; after 1 hour at 80° C.): 11%
- conversion to 1,5-cz-[Ln(Lig)], Yb^III ([4]; after 1 week at 80° C.): 76%
- conversion to 1,5-cz-[Ln(Lig)], Yb^III ([4]; after 1 hour at 80° C.): 15%
SMILES: [N-]=[N+]=NCc1cccc(CN2CCN(CC(=O)O)CCN(Cc3cccc(C#CI)n3)CCN(CC(=O)O)CC2)n1 [TD1204]
